This is an account of results in PMC5414857 (Toxicological Sciences, 2017).

In the experiment the target is bile salt export pump (BSEP) (Homo sapiens, UniProt O95342). In kind it is biochemical.

The structures appear in SMILES notation.

bile salt export pump (BSEP), sequence (O95342 whole entry): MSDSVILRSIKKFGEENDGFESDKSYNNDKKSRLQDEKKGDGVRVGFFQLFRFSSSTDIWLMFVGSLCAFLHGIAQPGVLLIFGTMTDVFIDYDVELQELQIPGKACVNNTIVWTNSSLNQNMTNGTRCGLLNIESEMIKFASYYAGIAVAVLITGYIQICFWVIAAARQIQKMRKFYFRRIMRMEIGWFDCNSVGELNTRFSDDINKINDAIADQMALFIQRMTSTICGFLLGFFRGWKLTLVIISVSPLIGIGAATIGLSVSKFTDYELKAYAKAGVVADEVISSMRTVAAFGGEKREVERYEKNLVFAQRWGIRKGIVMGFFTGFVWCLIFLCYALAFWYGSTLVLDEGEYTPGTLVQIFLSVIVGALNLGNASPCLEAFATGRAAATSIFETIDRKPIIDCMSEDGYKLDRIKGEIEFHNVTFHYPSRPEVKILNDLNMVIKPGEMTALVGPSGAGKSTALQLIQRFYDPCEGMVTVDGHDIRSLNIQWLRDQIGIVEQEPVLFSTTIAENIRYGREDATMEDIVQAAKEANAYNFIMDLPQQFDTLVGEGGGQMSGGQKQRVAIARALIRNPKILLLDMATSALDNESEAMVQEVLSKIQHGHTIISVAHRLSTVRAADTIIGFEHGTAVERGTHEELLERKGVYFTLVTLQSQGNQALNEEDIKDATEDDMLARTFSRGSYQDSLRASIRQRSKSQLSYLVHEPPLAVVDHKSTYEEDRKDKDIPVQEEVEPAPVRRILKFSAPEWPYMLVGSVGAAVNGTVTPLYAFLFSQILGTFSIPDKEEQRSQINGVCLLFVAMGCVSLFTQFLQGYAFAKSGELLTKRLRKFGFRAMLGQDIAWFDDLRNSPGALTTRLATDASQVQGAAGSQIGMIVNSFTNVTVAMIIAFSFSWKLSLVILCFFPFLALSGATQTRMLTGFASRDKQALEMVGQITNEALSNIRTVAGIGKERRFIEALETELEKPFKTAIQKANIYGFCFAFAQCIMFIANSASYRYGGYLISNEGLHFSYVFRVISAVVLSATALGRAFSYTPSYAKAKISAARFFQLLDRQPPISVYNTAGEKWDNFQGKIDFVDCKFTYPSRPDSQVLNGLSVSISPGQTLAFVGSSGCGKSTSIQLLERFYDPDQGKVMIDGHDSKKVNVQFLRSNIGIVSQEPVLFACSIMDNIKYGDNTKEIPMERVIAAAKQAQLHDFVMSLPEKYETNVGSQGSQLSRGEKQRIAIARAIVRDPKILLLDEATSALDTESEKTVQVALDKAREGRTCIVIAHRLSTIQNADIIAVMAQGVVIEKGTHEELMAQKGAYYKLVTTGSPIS

Take `Cc1cc(OCCCS(C)(=O)=O)cc(C)c1-c1cccc(COc2ccc3c(c2)OC[C@H]3CC(=O)O)c1` [TAK-875]: the half-inhibitory concentration (IC50) (commonly the concentration at which inhibition is half-maximal) came out at 14.3 µM.
